According to patent US9181230B2, “Morpholine compounds and uses thereof” (Hoffmann-La Roche Inc., priority 2013, dated 2015):
Where a name gives a salt, the structure may show the parent alone.

Tests used:
mouse TAAR1 = mouse TAAR1 (Mus musculus (Mouse), UniProt Q923Y8); assay: Radioligand binding assay on mouse TAAR1; conditions: mouse TAAR1, membranes of HEK-293 cells, first value of the cell pair mouse/rat
Procedure: (§1) For the construction of expression plasmids the coding sequences of human, rat and mouse TAAR 1 were amplified from genomic DNA essentially as described by Lindemann et al.. The Expand High Fidelity PCR System (Roche Diagnostics) was used with 1.5 mM Mg^2+ and purified PCR products were cloned into pCR2.1-TOPO cloning vector (Invitrogen) following the instructions of the manufacturer. PCR products were subcloned into the pIRESneo2 vector (BD Clontech, Palo Alto, Calif.), and expression vectors were sequence verified before introduction in cell lines.
(§2) HEK293 cells (ATCC # CRL-1573) were cultured essentially as described by Lindemann et al. (2005). For the generation of stably transfected cell lines HEK293 cells were transfected with the pIRESneo2 expression plasmids containing the TAAR coding sequences (described above) with Lipofectamine 2000 (Invitrogen) according to the instructions of the manufacturer, and 24 hrs post transfection the culture medium was supplemented with 1 mg/ml G418 (Sigma, Buchs, Switzerland). After a culture period of about 10 d clones were isolated, expanded and tested for responsiveness to trace amines (all compounds purchased from Sigma) with the cAMP Biotrak Enzyme immunoassay (EIA) System (Amersham) following the non-acetylation EIA procedure provided by the manufacturer.
(A) Radioligand Binding Assay on Mouse TAAR1
(§3) Membrane Preparation and Radioligand Binding.
(§4) HEK-293 cells stably expressing mouse TAAR1 were maintained at 37° C. and 5% CO2 in DMEM high glucose medium, containing fetal calf serum (10%, heat inactivated for 30 min at 56° C.), penicillin/streptomycin (1%), and 375 μg/ml geneticin (Gibco). Cells were released from culture flasks using trypsin/EDTA, harvested, washed twice with ice-cold PBS (without Ca^2+ and Mg^2+), pelleted at 1,000 rpm for 5 min at 4° C., frozen and stored at −80° C. Frozen pellets were suspended in 20 ml HEPES-NaOH (20 mM, pH 7.4) containing 10 mM EDTA and homogenized with a Polytron (PT 6000, Kinematica) at 14,000 rpm for 20 s. The homogenate was centrifuged at 48,000×g for 30 min at 4° C. Subsequently, the supernatant was removed and discarded, and the pellet resuspended in 20 ml HEPES-NaOH (20 mM, pH 7.4) containing 0.1 mM EDTA using the Polytron (20 s at 14,000 rpm). This procedure was repeated and the final pellet resuspended in HEPES-NaOH containing 0.1 mM EDTA and homogenized using the Polytron. Typically, aliquots of 2 ml membrane portions were stored at −80° C. With each new membrane batch the dissociation constant (Kd) was determined via a saturation curve. […] Nonspecific binding was defined as the amount of ^3[H]-(S)-4-[(ethyl-phenyl-amino)-methyl]-4,5-dihydro-oxazol-2-ylamine bound in the presence of 10 μM unlabeled ligand. All compounds were tested at a broad range of concentrations (10 pM to 10 μM) in duplicates. […] The 96 deep well plates were incubated for 1 hr at 4° C. Incubations were terminated by rapid filtration through Unifilter-96 plates (Packard Instrument Company) and glass filters GF/C (Perkin Elmer) presoaked for 1 hr in polyethylenimine (0.3%) and washed 3 times with 1 ml of cold binding buffer. After addition of 45 μl of Microscint 40 (PerkinElmer) the Unifilter-96 plate was sealed and after 1 hr the ratioactivity counted using a TopCount Microplate Scintillation Counter (Packard Instrument Company).

rat TAAR1 = rat TAAR1 (Rattus norvegicus (Rat), UniProt Q923Y9); assay: Radioligand binding assay on rat TAAR1; conditions: rat TAAR1, membranes of HEK-293 cells, second value of the cell pair mouse/rat
Procedure: as §1, §2
(B) Radioligand Binding Assay on Rat TAAR1
as §3
as §4, with “rat” for “mouse”

Sequence of mouse TAAR1 (Q923Y8 whole entry): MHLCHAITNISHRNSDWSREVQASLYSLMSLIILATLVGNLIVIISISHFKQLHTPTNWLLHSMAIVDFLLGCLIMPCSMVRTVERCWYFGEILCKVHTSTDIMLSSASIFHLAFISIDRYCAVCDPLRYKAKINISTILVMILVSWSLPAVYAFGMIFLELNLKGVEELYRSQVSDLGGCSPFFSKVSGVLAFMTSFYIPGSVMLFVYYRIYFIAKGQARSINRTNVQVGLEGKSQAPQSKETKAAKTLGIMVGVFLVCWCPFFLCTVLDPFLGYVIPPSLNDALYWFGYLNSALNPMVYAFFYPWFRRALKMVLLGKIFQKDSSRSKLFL
Sequence of rat TAAR1 (Q923Y9 whole entry): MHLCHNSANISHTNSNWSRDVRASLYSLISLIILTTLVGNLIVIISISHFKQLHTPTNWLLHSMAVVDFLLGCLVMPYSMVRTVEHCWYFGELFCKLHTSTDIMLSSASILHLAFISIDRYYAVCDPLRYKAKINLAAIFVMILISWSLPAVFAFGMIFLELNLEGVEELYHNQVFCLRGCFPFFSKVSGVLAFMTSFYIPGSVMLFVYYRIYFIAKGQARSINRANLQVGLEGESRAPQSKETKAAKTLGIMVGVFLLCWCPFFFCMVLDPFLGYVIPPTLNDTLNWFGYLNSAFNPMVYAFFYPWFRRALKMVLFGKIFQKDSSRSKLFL

Structure (SMILES) | Ki (mouse TAAR1) | Ki (rat TAAR1) | other results
Fc1ccc(-c2nnc(-c3ccc([C@H]4CNCCO4)cc3)o2)cc1 [Example 17, (S)-2-(4-(5-(4-Fluorophenyl)-1,3,4-oxadiazol-2-yl)phenyl)morpholine hydrochloride] | 0.0032 µM | 0.229 µM | –
Fc1ccc(-n2cc(-c3ccc([C@@H]4CNCCO4)cc3)nn2)cc1 [Example 35, (R)-2-(4-(1-(4-Fluorophenyl)-1H-1,2,3-triazol-4-yl)phenyl)morpholine hydrochloride] | 0.0017 µM | – | –
FC(F)(F)c1cnc2[nH]c3ccc([C@H]4CNCCO4)cc3c2c1 [Example 46, (S)-2-(3-(Trifluoromethyl)-9H-pyrido[2,3-b]indol-6-yl)morpholine hydrochloride] | 0.0023 µM | 0.0698 µM | –
Clc1ccc(-c2cc(-c3ccc(C4CNCCO4)cc3)n[nH]2)cn1 (stereo not shown) [Example 5, 2-(4-(5-(6-Chloropyridin-3-yl)-1H-pyrazol-3-yl)phenyl)morpholine hydrochloride] | 0.0044 µM | 0.0631 µM | –
FC(F)(F)c1cc(-c2nc3ccc([C@H]4CNCCO4)cc3o2)ccn1 [Example 55, (S)-6-(Morpholin-2-yl)-2-(2-(trifluoromethyl)pyridin-4-yl)benzo[d]oxazole hydrochloride] | – | 0.304 µM | –
c1ccc2[nH]c(-c3ccc(C4CNCCO4)cc3)nc2c1 (stereo not shown) [Example 1, 2-(4-(1H-Benzo[d]imidazol-2-yl)phenyl)morpholine hydrochloride] | 0.038 µM | 0.76 µM | –
O=C(Nc1cc(-c2ccc([C@H]3CNCCO3)cc2)n[nH]1)c1ccc(F)cc1 [Example 30, (S)-4-Fluoro-N-(3-(4-(morpholin-2-yl)phenyl)-1H-pyrazol-5-yl)benzamide hydrochloride] | 0.0022 µM | – | –
c1cnc2[nH]c3ccc([C@H]4CNCCO4)cc3c2c1 [Example 45, (S)-2-(9H-Pyrido[2,3-b]indol-6-yl)morpholine hydrochloride] | – | 1 µM | –
FC(F)(F)c1cnc2[nH]c3ccc([C@@H]4CNCCO4)cc3c2c1 [Example 48, (R)-2-(3-(Trifluoromethyl)-9H-pyrido[2,3-b]indol-6-yl)morpholine hydrochloride] | – | – | Ki (mouse TAAR1; hydrochloride): 0.0081 µM; Ki (rat TAAR1; hydrochloride): 0.0639 µM
Fc1ccc(-c2cc(-c3ccc([C@H]4CNCCO4)cc3)n[nH]2)c(F)c1 [Example 13, (S)-2-(4-(5-(2,4-Difluorophenyl)-1H-pyrazol-3-yl)phenyl)morpholine hydrochloride] | 0.0003 µM | – | –
Fc1ccc(-c2ncn(-c3ccc([C@H]4CNCCO4)cc3)n2)cc1 [Example 25, (S)-2-(4-(3-(4-Fluorophenyl)-1H-1,2,4-triazol-1-yl)phenyl)morpholine hydrochloride] | 0.0034 µM | – | –
FC(F)(F)c1cc(-c2nc3ccc([C@@H]4CNCCO4)cc3o2)ccn1 [Example 54, (R)-6-(Morpholin-2-yl)-2-(2-(trifluoromethyl)pyridin-4-yl)benzo[d]oxazole hydrochloride] | – | 0.448 µM | –
Fc1ccc(-c2nc3cc([C@@H]4CNCCO4)ccc3[nH]2)cc1 [Example 44, (R)-2-(2-(4-Fluorophenyl)-1H-benzo[d]imidazol-5-yl)morpholine hydrochloride] | 0.004 µM | – | –
Cc1cc2nc(-c3ccc([C@H]4CNCCO4)cc3)[nH]c2cc1C [Example 16, (S)-2-(4-(5,6-Dimethyl-1H-benzo[d]imidazol-2-yl)phenyl)morpholine hydrochloride] | – | 1.14 µM | –
Fc1ccc(-c2nc3cc([C@H]4CNCCO4)ccc3[nH]2)cc1 [Example 43, (S)-2-(2-(4-Fluorophenyl)-1H-benzo[d]imidazol-5-yl)morpholine hydrochloride] | 0.0014 µM | – | –
Clc1cc(-c2cc(-c3ccc([C@H]4CNCCO4)cc3)n[nH]2)ccn1 [Example 42, (S)-2-(4-(5-(2-Chloropyridin-4-yl)-1H-pyrazol-3-yl)phenyl)morpholine hydrochloride] | 0.0016 µM | – | –
Fc1ccc(-c2cn(-c3ccc([C@H]4CNCCO4)cc3)nn2)cc1 [Example 27, (S)-2-(4-(4-(4-Fluorophenyl)-1H-1,2,3-triazol-1-yl)phenyl)morpholine hydrochloride] | 0.0004 µM | – | –
Fc1cc(F)c2nc(-c3ccc([C@H]4CNCCO4)cc3)[nH]c2c1 [Example 11, (S)-2-(4-(4,6-Difluoro-1H-benzo[d]imidazol-2-yl)phenyl)morpholine hydrochloride] | 0.009 µM | – | –
Fc1ccc(-c2ncn(-c3ccc([C@@H]4CNCCO4)cc3)n2)cc1 [Example 36, (R)-2-(4-(3-(4-Fluorophenyl)-1H-1,2,4-triazol-1-yl)phenyl)morpholine hydrochloride] | 0.0097 µM | – | –
Fc1ccc(-c2cc(-c3ccc([C@@H]4CNCCO4)cc3)n[nH]2)c(F)c1 [Example 14, (R)-2-(4-(5-(2,4-Difluorophenyl)-1H-pyrazol-3-yl)phenyl)morpholine hydrochloride] | 0.0008 µM | – | –
Fc1ccc(-c2cn(-c3ccc([C@@H]4CNCCO4)cc3)nn2)cc1 [Example 39, (R)-2-(4-(4-(4-Fluorophenyl)-1H-1,2,3-triazol-1-yl)phenyl)morpholine hydrochloride] | 0.001 µM | – | –
Clc1ccc2nc(-c3ccc(C4CNCCO4)cc3)[nH]c2c1 (stereo not shown) [Example 2, 2-(4-(6-Chloro-1H-benzo[d]imidazol-2-yl)phenyl)morpholine hydrochloride] | 0.0032 µM | – | –
FC(F)(F)c1ccc2c(n1)[nH]c1ccc([C@H]3CNCCO3)cc12 [Example 49, (S)-2-(2-(Trifluoromethyl)-9H-pyrido[2,3-b]indol-6-yl)morpholine hydrochloride] | 0.0032 µM | – | –
Fc1ccc(-n2cc(-c3ccc([C@H]4CNCCO4)cc3)nn2)cc1 [Example 18, (S)-2-(4-(1-(4-Fluorophenyl)-1H-1,2,3-triazol-4-yl)phenyl)morpholine hydrochloride] | 0.002 µM | – | –
Brc1cnc2nc(-c3ccc([C@H]4CNCCO4)cc3)[nH]c2c1 [Example 7, (S)-2-(4-(6-bromo-1H-imidazo[4,5-b]pyridin-2-yl)phenyl)morpholine hydrochloride] | 0.0089 µM | – | –
N#Cc1ccc(-c2cc(-c3ccc([C@H]4CNCCO4)cc3)n[nH]2)c(F)c1 [Example 33, (S)-3-Fluoro-4-(3-(4-(morpholin-2-yl)phenyl)-1H-pyrazol-5-yl)benzonitrile hydrochloride] | 0.0016 µM | – | –
